Among the data in ChEMBL document CHEMBL1123357, “Chemotherapeutic approaches to the treatment of the acquired immune deficiency syndrome (AIDS)” (1986) are MIC and SI values, retold here.

Converted amounts (≈) assume the structure as drawn.

Test [1] deals with ATH-8 cell line. The test is described as follows: Minimum inhibitory concentration of the compound, achieving a complete protection of ATH8 cells against the cytopathic effect of HTLV-III / LAV […]. The test is classed as functional. Conditions: Homo sapiens. Background: Damage to the host cells serves as the signal in cytopathic effect assays.
In test [2] the test system is ATH-8 cell line. The test is described as follows: Selectivity index expressed as ratio of compound concentration required to reduce the growth of normal uninfected ATH8 cells by 50% to the compound concentration (MIC). The test is classed as functional, Homo sapiens.

As to `O=C(O)C1=CC(=C(c2ccc(O)c(C(=O)O)c2)c2ccc(O)c(C(=O)O)c2)C=CC1=O` [AURINTRICARBOXYLIC ACID], the MIC against ATH-8 cell line [1] was 47 µM (≈ 19.9 µg/mL). Further, in the test with ATH-8 cell line [2], the SI is over 2.5.

`Cc1cc(-c2ccc(/N=N/c3ccc4c(S(=O)(=O)[O-])cc(S(=O)(=O)[O-])c(N)c4c3O)c(C)c2)ccc1/N=N/c1ccc2c(S(=O)(=O)[O-])cc(S(=O)(=O)[O-])c(N)c2c1O.[Na+].[Na+].[Na+].[Na+]` [EVANS BLUE] gave an MIC against ATH-8 cell line [1] of 26 µM. In the test with ATH-8 cell line [2], the SI is over 4.

Compound `O=C(O)P(=O)(O)O` [FOSCARNET] returned an MIC against ATH-8 cell line [1] of 350 µM (≈ 44.1 µg/mL). Besides, the SI in the test on ATH-8 cell line [2] was over 1.

`NC(=O)c1ncn([C@@H]2O[C@H](CO)[C@@H](O)[C@H]2O)n1` [RIBAVIRIN]: the MIC against ATH-8 cell line [1] is over 400 µM. Moreover, in the test on ATH-8 cell line [2], the SI is given as under 0.3.

`Cc1ccc(C(=O)Nc2ccc(S(=O)(=O)O)c3cc(S(=O)(=O)O)cc(S(=O)(=O)O)c23)cc1NC(=O)c1cccc(NC(=O)Nc2cccc(C(=O)Nc3cc(C(=O)Nc4ccc(S(=O)(=O)O)c5cc(S(=O)(=O)O)cc(S(=O)(=O)O)c45)ccc3C)c2)c1` [SURAMIN] showed an MIC against ATH-8 cell line [1] of 35 µM (≈ 45.4 µg/mL). Besides, the SI with ATH-8 cell line [2] is on record as 5.

With `Nc1ccn([C@H]2CC[C@@H](CO)O2)c(=O)n1` [ZALCITABINE], the MIC against ATH-8 cell line [1] was found to be 0.5 µM (≈ 0.106 µg/mL). For the same compound, the SI with ATH-8 cell line [2] is reported as 50.

In the case of `Cc1cn([C@H]2C[C@H](N=[N+]=[N-])[C@@H](CO)O2)c(=O)[nH]c1=O` [ZIDOVUDINE], the MIC in the test on ATH-8 cell line [1] is 1 µM (≈ 0.267 µg/mL). Besides, the SI in the test on ATH-8 cell line [2] is over 50.
